Source: patent US12558367B2, “Nicotinamide riboside and derivatives thereof in intravenous formulations and methods of use thereof” (ChromaDex Inc., priority 2023, dated 2026)
Entries after “also recorded” stand apart in the source; their conditions may differ.

Tests used:
[1] = Energy/Fatigue Scale, randomized placebo-controlled pilot clinical study (Study 1); format: in vivo, human; settings: for Mental Energy / Perceived Fatigue: possible scores 5-30; for General Energy / Motivation: possible scores 6-36; for Physical Energy: possible scores 7-42; for Emotional Energy: possible scores 8-48
Description: (§1) The present randomized, double-blinded, placebo-controlled, pilot clinical study was initiated with the primary aim of investigating the safety, tolerability, and the blood NAD+-boosting efficacy of an acute, single dose of NR IV (500 mg, test), NAD+ IV (500 mg, active comparator), oral NR (500 mg, bridge), and saline IV (placebo control) in generally healthy adult participants. The study consisted of two parts; data from 37 and 16 participants in the first and second phases, respectively, were analyzed.
(§2) This was a 2-part study. The first study was a 4-arm randomized, placebo-controlled parallel trial. The 3 IV arms were double-blinded, while the 4th arm involved oral administration making it naturally unblinded. Participants were randomized at a 10:10:10:6 ratio to intravenous placebo (saline), NAD^+, NR, or oral NR (oral). The second study was a randomized parallel design trial with two arms for the purpose of evaluating the actual differences in infusion rates in real time. Participants were randomized at a 1:1 ratio to intravenous NR or NAD^+.
(§3) Vials of 50 mg/ml of NR or NAD+ were prepared in 10 ml of sterile water by DCA Pharmacy (Franklin, Tennessee) by prescription, for research administration only, and maintained in refrigerated conditions until use. For participants who were randomized to the test group or to the active comparator group, the NR or NAD+ was added to 500 ml of normal saline (B Braun 0.9% sodium chloride injection USP, preservative free) prior to intravenous administration. Those randomly assigned to the saline group received 500 ml of normal saline. Participants that were randomly assigned to the oral arm were provided with 500 mg of NR which was taken with water.
(§4) To assess vital signs and subdomains on the sleep and energy scales, between-groups comparisons were assessed using analysis of covariance (ANCOVA) with baseline scores as the covariate and a Bonferroni correction. Levene's test was used to check and confirm the assumption of homogeneity of variances.
(§5) Tables A-D below reflect mean scores for each group at days 7 and 14. An ANCOVA was used to identify statistical significant differences, using baseline scores as the covariate which helps to account for the natural variation in psychological measurements, increasing the power of the study.
It is noted that the energy scale measures disruptions to energy levels; lower scores reflect greater levels of energy.

[2] = Sleep Scale, pilot clinical study (Study 1); format: in vivo, human; settings: for Sleep Maintenance: possible scores 3-18; for Sleep Latency: possible scores 4-24; for Cognitive Effects / Daytime Sleepiness / Emotional Effects / Productivity / Sleep Inertia: possible scores 5-30
Description: as §1, §2, §3, §4, §5
For the sleep scale, the greatest improvements were seen on the scale of sleep latency, which refers to the ability to fall asleep at night, and sleep-related cognitive effects.

[3] = Vital signs post-intervention (Study 1); format: in vivo, human; settings: single 500 mg dose, mean (SD)
Description: as §1
(§6) The safety of the IV infusion was evaluated using a combination of endpoints, including tolerable infusion rate, total number of adverse effects, participant vital signs, a complete blood count (CBC), a comprehensive metabolic panel (CMP), glucose and insulin levels, and the participant's self-reported subjective experience.
as §4
For the first study, data from 37 patients were available for intent to treat analysis; for the second study, data from 16 patients were available for intent to treat analysis.

[4] = Tolerable infusion rate / infusion duration, Study 1; format: in vivo, human; settings: 500 mg in 500 ml saline, start 20 drops per minute for 15 minutes, then rate by participant comfort, mean ± SD
Description: as §3
(§7) In the first study, participants began the infusion at a rate of 20 drops per minute for the first 15 minutes to ensure safety and comfort. […] Participants were closely monitored for the duration of the infusion, and the infusion rate was decreased, as applicable, upon participant request.
(§8) Additional analyses were conducted using GraphPad Prism (Ver. 10.0.2). Statistical significance was determined as p<0.05, with comparisons of the test articles compared to saline or between group comparisons. […] Time in chair was analyzed for study 1 by a one-way ANOVA with multiple comparisons, study 2 was analyzed by unpaired t-test. The baseline variable of age was analyzed for differences by one way ANOVA with multiple comparisons for study.

[5] = Tolerable infusion rate / infusion duration, Study 2 (IV line fully open); format: in vivo, human; settings: males, rate decreased on request, mean (SD)
Source text: as §2, with “NAD^+. […]” for “NAD^+.”
as §7, §8

[6] = Patient subjective experience and adverse event monitoring; format: in vivo, human
Description: as §6
Adverse event monitoring began on the first day of the study and continued for 14 days (study one) or 7 days (study two). Participants were instructed to notify the research staff of any new or unusual symptoms during the trial and open-ended questions during data collection solicited unexpected side effects.

[7] = Clinical chemistry (comprehensive metabolic panel); format: in vivo, human
Description: as §6
(§9) Between-groups comparisons of each outcome measured in the […] and CMP were evaluated using mixed between-within subjects ANOVA with the timepoint being the within subjects' factor and the group assignment as the between subjects factor. Mauchly's test of sphericity was used to confirm assumptions. Violations of the assumption of sphericity are addressed with the Greenhouse-Geisser correction.
(§10) Additional analyses were conducted using GraphPad Prism (Ver. 10.0.2). Statistical significance was determined as p<0.05, with comparisons of the test articles compared to saline or between group comparisons. 2way ANOVA with Tukey's multiple comparisons test with a single pooled variance was used to determine significance in hematology, clinical chemistry, and vitals. Time in chair was analyzed for study 1 by a one-way ANOVA with multiple comparisons, study 2 was analyzed by unpaired t-test. The baseline variable of age was analyzed for differences by one way ANOVA with multiple comparisons for study.

[8] = Hematology (complete blood count); format: in vivo, human; settings: for mean corpuscular volume (MCV): in fL (unit assumed); for elevations in white blood cells and neutrophils: baseline to three-hours post-infusion
Description: as §6, §9, §10

whole blood NAD+ = experiment: NAD+ analysis of dried blood spots (DBS) by LC/MS; format: in vivo, human; set-up: Mean NAD: unit not given here; settings: for Mean NAD: dried blood spot
Description: Finger punctures were conducted using a lancet. Blood was then applied to the circles on the dried blood spot (DBS) card and allowed to dry for a minimum of 3 hours. […] See, for example, FIG. 3. The use of dried blood spots (DBS) allowed for the analysis of NAD+ levels based upon samples that could be prepared at the clinic or by the study participants from home. While 36 of 37 participants in study 1 utilized the DBS at all time points, not all samples were analyzable. […] However, the model was significant for the 3-hour timepoint (p=0.010; […] At 6 hours, near-significant differences were observed between the NAD+ and NR IV group (t=1.99, p=0.055), and significant differences were observed between the NR IV and saline groups (t=−2.80, p=0.009), and between the NR IV and oral NR groups (t=−2.59, p=0.015). See, Tables 3-9 below. Tables 3-9 below reflect mean/SD for each group at each of the 7 timepoints. A basic ANOVA was conducted to investigate the data.

blood NAD+ = settings: cited from earlier work
[9] = Energy/Fatigue Scale Day 7, mean score, lower = greater energy
[10] = Energy/Fatigue Scale Day 7, mean score, lower scores = greater energy, single 500 mg dose
[11] = Energy/Fatigue Scale Day 14, mean score, lower = greater energy
[12] = 3 hours post infusion, mean ± SD
[13] = Immediately Post-Intervention (10 minutes after infusion)

SMILES: NC(=O)c1ccc[n+]([C@@H]2O[C@H](COP(=O)([O-])OP(=O)(O)OC[C@H]3O[C@@H](n4cnc5c(N)ncnc54)[C@H](O)[C@@H]3O)[C@@H](O)[C@H]2O)c1 [NAD+ IV, Nicotinamide Adenine Dinucleotide]
- Mental Energy [1, 9]: 13.13
- Perceived Fatigue [1, 9]: 15.75
- General Energy [1, 9]: 20.63
- Motivation [1, 9]: 11.13
- Physical Energy [1, 10]: 19.63
- Emotional Energy [1, 9]: 31.75
- Mental Energy [1, 11]: 14.50
- Perceived Fatigue [1, 11]: 15.50
- General Energy [1, 11]: 20.13
- Motivation [1, 11]: 13.50
- Physical Energy [1, 11]: 18.50
- Emotional Energy [1, 11]: 29.63
- Sleep Maintenance ([2]; Sleep Scale Day 7, mean score): 8.88
- Sleep Latency ([2]; Sleep Scale Day 7, mean score): 11.63
- Cognitive Effects ([2]; Sleep Scale Day 7, mean score): 15.50
- Daytime Sleepiness ([2]; Sleep Scale Day 7, mean score): 17.63
- Emotional Effects ([2]; Sleep Scale Day 7, mean score): 15.75
- Productivity ([2]; Sleep Scale Day 7, mean score): 13.86
- Sleep Inertia ([2]; Sleep Scale Day 7, mean score): 17.38
- Sleep Maintenance ([2]; Sleep Scale Day 14, mean score): 8.25
- Sleep Latency ([2]; Sleep Scale Day 14, mean score): 10.75
- Cognitive Effects ([2]; Sleep Scale Day 14, mean score): 15.63
- Daytime Sleepiness ([2]; Sleep Scale Day 14, mean score): 16.88
- Emotional Effects ([2]; Sleep Scale Day 14, mean score): 16.38
- Productivity ([2]; Sleep Scale Day 14, mean score): 13.25
- Sleep Inertia ([2]; Sleep Scale Day 14, mean score): 16.00
- Post-intervention diastolic blood pressure [3]: 73.40 (SD: 13.15) mmHg
- Post-intervention heart rate [3]: 68.40 (SD: 8.10) beats per minute
- Post-intervention systolic blood pressure [3]: 117.20 (SD: 14.54) mmHg
- infusion intake, average [4]: 182.9 ± 55.93 min
- average infusion rate (total infusion time) [5]: 98.88 (SD: 46.70) minutes
- comfort level described by majority of patients ([6]; during IV infusion): low
- patients having a bowel movement during the IV ([6]; fraction of patients, nursing staff report): Approximately half
- sensations / adverse experiences reported during infusion ([6]; patient self-report, 500 mg IV): anxiety, headaches, nausea, and sudden urges to have a bowel movement or diarrhea; also recorded: nausea, headache, diarrhea, and muscle tightness
- significant differences in bilirubin and AST (indicators of liver function) ([7]; 3- and 24-hour timepoints): not detected
- change in globulin from baseline to 24 hours post infusion ([7]; Study 1, mean ± SD): 0.1300±0.1829
- estimated glomerular filtration rate change from baseline to 3 hours post infusion ([7]; Study 1, mean ± SD, not deemed clinically significant): 1.400±8.462
- White blood cell count [8, 12]: 6.990±2.386 Thousand/microliter
- absolute neutrophils [8, 12]: 4724±2159 Cells/microliter
- mean corpuscular volume (MCV) [8, 12]: 87.38±3.991
- mean corpuscular volume (MCV) ([8]; 24 hours post infusion, mean ± SD): 87.34±3.035
- elevations in white blood cells and neutrophils [8]: clinically significant elevations in white blood cells and increases in absolute and percentage neutrophils
- mean corpuscular volume (MCV) ([8]; baseline, mean ± SD): 88.43±3.772
- effect on whole blood NAD+ (whole blood NAD+; NR IV: at 3 hours relative to placebo and NAD+ IV, NAD+ IV: within 24 hours): did not significantly elevate
- increase in whole blood NAD+ relative to baseline (whole blood NAD+; at 24 hours): 2%
- Mean NAD (whole blood NAD+; 3 Hours Post-Intervention): 19.20
- Mean NAD (whole blood NAD+; 6 Hours Post-Intervention): 18.88
- Mean NAD (whole blood NAD+; 24 Hours Post-Intervention): 19.73
- Mean NAD (whole blood NAD+; Baseline Scores): 19.27
- Mean NAD (whole blood NAD+; [13]): 19.16

SMILES: NC(=O)c1ccc[n+]([C@@H]2O[C@H](COP(=O)([O-])O)[C@@H](O)[C@H]2O)c1 [NMN, Nicotinamide mononucleotide]
- safety and tolerability (blood NAD+; 300 mg in 100 mL saline, 5 mL/min IV, 10 healthy Japanese adults (Kimura et al.)): safe and well-tolerated
- blood NAD+ levels (blood NAD+; intravenous NMN (Kimura et al.)): elevated blood NAD+ levels at multiple timepoints relative to baseline

SMILES: NC(=O)c1ccc[n+]([C@@H]2O[C@H](CO)[C@@H](O)[C@H]2O)c1.[Cl-] [oral NR, nicotinamide riboside chloride]
- Mental Energy [1, 9]: 14.90
- Perceived Fatigue [1, 9]: 14.10
- General Energy [1, 9]: 23.20
- Motivation [1, 9]: 12.20
- Physical Energy [1, 10]: 19.80
- Emotional Energy [1, 9]: 32.50
- Mental Energy [1, 11]: 15.67
- Perceived Fatigue [1, 11]: 16.44
- General Energy [1, 11]: 23.67
- Motivation [1, 11]: 12.56
- Physical Energy [1, 11]: 20.00
- Emotional Energy [1, 11]: 32.44
- Sleep Maintenance ([2]; Sleep Scale Day 14, mean score): 7.50
- Sleep Latency ([2]; Sleep Scale Day 14, mean score): 10.00
- Cognitive Effects ([2]; Sleep Scale Day 14, mean score): 16.36
- Daytime Sleepiness ([2]; Sleep Scale Day 14, mean score): 15.63
- Emotional Effects ([2]; Sleep Scale Day 14, mean score): 20.50
- Productivity ([2]; Sleep Scale Day 14, mean score): 12.88
- Sleep Inertia ([2]; Sleep Scale Day 14, mean score): 15.88
- Post-intervention diastolic blood pressure [3]: 71.00 (SD: 6.24) mmHg
- Post-intervention heart rate [3]: 65.78 (SD: 7.95) beats per minute
- Post-intervention systolic blood pressure [3]: 108.56 (SD: 9.08) mmHg
- safety / attributable adverse events ([6]; intervention and follow-up period up to 14 days): safe and well tolerated
- clinically relevant changes in comprehensive metabolic panel or CBC with differential ([7]; Study 1): did not display any clinically relevant changes
- elevations in white blood cells and neutrophils [8]: not observed
- Mean NAD (whole blood NAD+; 3 Hours Post-Intervention): 18.54
- Mean NAD (whole blood NAD+; 6 Hours Post-Intervention): 18.01
- Mean NAD (whole blood NAD+; 24 Hours Post-Intervention): 23.25
- Mean NAD (whole blood NAD+; Baseline Scores): 18.34
- Mean NAD (whole blood NAD+; [13]): 19.16
